Where a name gives a salt, the structure may show the parent alone.
Experiments:
Details in all cases: 72 h
Caco-2 [1] = test: cell viability relative to DMSO; higher = less toxic
HepG2 [2] = test: as above
U2OS [3] = test: as above
Vero E6 [4] = test: as above
Caco-2 [5] = test: relative viability EC50 (midpoint between 100% and the lowest measured viability); higher = less toxic
HepG2 [6] = test: as above
U2OS [7] = test: as above
Vero E6 [8] = test: as above
Caco-2 [9] = test: drug sensitivity score (DSS) for viability; higher = more toxic; extreme values may be limits of the assay
HepG2 [10] = test: as above
U2OS [11] = test: as above
Vero E6 [12] = test: as above
Calu-3 [13] = test: cell viability relative to DMSO; higher = less toxic
Calu-3 [14] = test: drug sensitivity score (DSS) for viability; higher = more toxic; extreme values may be limits of the assay

Row | SMILES | cell viability (Caco-2 [1]; 1 nM) [%] | cell viability (Caco-2 [1]; 10 nM) [%] | cell viability (Caco-2 [1]; 100 nM) [%] | cell viability (Caco-2 [1]; 1000 nM) [%] | cell viability (Caco-2 [1]; 10000 nM) [%] | cell viability (HepG2 [2]; 1 nM) [%] | cell viability (HepG2 [2]; 10 nM) [%] | cell viability (HepG2 [2]; 100 nM) [%] | cell viability (HepG2 [2]; 1000 nM) [%] | cell viability (HepG2 [2]; 10000 nM) [%] | cell viability (U2OS [3]; 1 nM) [%] | cell viability (U2OS [3]; 10 nM) [%] | cell viability (U2OS [3]; 100 nM) [%] | cell viability (U2OS [3]; 1000 nM) [%] | cell viability (U2OS [3]; 10000 nM) [%] | cell viability (Vero E6 [4]; 1 nM) [%] | cell viability (Vero E6 [4]; 10 nM) [%] | cell viability (Vero E6 [4]; 100 nM) [%] | cell viability (Vero E6 [4]; 1000 nM) [%] | cell viability (Vero E6 [4]; 10000 nM) [%] | relative viability EC50 (Caco-2 [5]) [µM] | relative viability EC50 (HepG2 [6]) [µM] | relative viability EC50 (U2OS [7]) [µM] | relative viability EC50 (Vero E6 [8]) [µM] | drug sensitivity score (Caco-2 [9]) | drug sensitivity score (HepG2 [10]) | drug sensitivity score (U2OS [11]) | drug sensitivity score (Vero E6 [12]) | cell viability (Calu-3 [13]; 1 nM) [%] | cell viability (Calu-3 [13]; 10 nM) [%] | cell viability (Calu-3 [13]; 100 nM) [%] | cell viability (Calu-3 [13]; 1000 nM) [%] | cell viability (Calu-3 [13]; 10000 nM) [%] | drug sensitivity score (Calu-3 [14])
1 | COc1cccc(-c2ccc(NC(=O)C3=C(C(=O)O)CCC3)c(F)c2)c1 | 96.4 | 93.1 | 103 | 98.6 | 78.8 | 103 | 89.4 | 98.8 | 97.5 | 92.6 | 99 | 105 | 96.8 | 104 | 96.2 | 90.1 | 92.2 | 98 | 95.8 | 90.8 | > 10 | > 10 | > 10 | > 10 | 0.9 | 0 | 0 | 0 |  |  |  |  |  | 
2 | Cc1cccc(-c2[nH]c(C(C)(C)C)nc2-c2ccc3c(c2)OCO3)n1 | 95.4 | 94.3 | 98.3 | 77.1 | 15 | 94.6 | 102 | 101 | 75.2 | 4.5 | 98.8 | 98.6 | 90.6 | 95.4 | 69.2 | 104 | 101 | 107 | 96.2 | 81.7 | 1.49 | 1.52 |  | > 10 | 8.2 | 9.1 | 2.1 | 0.9 | 102 | 95.2 | 107 | 103 | 70.3 | 1.1
3 | Cc1cccc(-c2n[nH]cc2-c2ccc(F)c(-c3cnn(CCO)c3)c2)n1 | 93.3 | 91.9 | 99.7 | 92.5 | 91.5 | 103 | 94.1 | 95.2 | 106 | 109 | 103 | 98.8 | 95.7 | 89.3 | 92.6 | 96.1 | 101 | 98 | 93.4 | 94.5 | > 10 | > 10 | > 10 | > 10 | 0 | 0 | 0.1 | 0 |  |  |  |  |  | 
4 | N#Cc1ccc(COC[C@H]2O[C@@H](n3c(NCc4ccc(Cl)c(Cl)c4)nc4c(N)ncnc43)[C@H](O)[C@@H]2O)cc1 | 94.5 | 98.9 | 91.8 | 101 | 52.8 | 94.2 | 93.4 | 101 | 82.5 | 20.4 | 95.6 | 97.9 | 93.7 | 97.4 | 64.9 | 101 | 97.8 | 106 | 99.9 | 99.4 |  | 1.66 |  | > 10 | 2.3 | 7.2 | 2 | 0 | 96.9 | 93.3 | 99.6 | 86.2 | 52.8 | 4.5
5 | O=C(O)c1cc2occc2[nH]1 | 91.3 | 89 | 94.2 | 94.1 | 94.6 | 99.2 | 104 | 103 | 92.6 | 103 | 98.6 | 104 | 99.5 | 102 | 98.7 | 107 | 104 | 102 | 99.8 | 101 | > 10 | > 10 | > 10 | > 10 | 0 | 0 | 0 | 0 |  |  |  |  |  | 
6 | Cc1cc(C(=O)O)sc1C(N)C(=O)O (stereo not given) [3-MATIDA] | 96.9 | 105 | 97.3 | 99.4 | 96.9 | 96.4 | 94.8 | 83.2 | 96.3 | 91.8 | 103 | 110 | 96.8 | 102 | 97.5 | 92.6 | 99.2 | 95.2 | 93.5 | 98 | > 10 | > 10 | > 10 | > 10 | 0 | 0 | 0 | 0 |  |  |  |  |  | 
7 | Nc1cc2c3ccccc3ccc2c2ccccc12 [6-aminochrysene] |  |  |  |  |  |  |  |  |  |  |  |  |  |  |  |  |  |  |  |  |  |  |  |  |  | 3 | 4.4 | 0.2 |  |  |  |  |  | 0
8 | CN(C)CCN(C)CCc1ccc(Cl)c(Cl)c1 [BD-1047] | 95.4 | 102 | 98.3 | 94.6 | 91.8 | 98.3 | 102 | 96.2 | 85.5 | 89.9 | 97.2 | 102 | 93.4 | 97.5 | 94.7 | 94.5 | 104 | 96.8 | 93.6 | 97.4 | > 10 | > 10 | > 10 | > 10 | 0 | 1.6 | 0 | 0 |  |  |  |  |  | 
9 | O=[N+]([O-])c1cnc(Sc2nnc(O)n2-c2ccc3c(c2)OCCO3)s1 [BI-78D3] | 99.2 | 102 | 94 | 88.3 | 7 | 103 | 102 | 95.8 | 70.3 | 1.4 | 98.9 | 98 | 94.5 | 97.9 | 0.1 | 101 | 95.6 | 99.3 | 94.7 | 0.4 | 2.14 | 1.4 | 3.02 | 2.75 | 7.1 | 9.8 | 5.8 | 6.3 |  |  |  |  |  | 
10 | CN(C)[C@@H]1C(O)=C(C(N)=O)C(=O)[C@@]2(O)C(O)=C3C(=O)c4c(O)ccc(Cl)c4[C@@](C)(O)[C@H]3C[C@@H]12 [CHLORTETRACYCLINE HYDROCHLORIDE] |  |  |  |  |  |  |  |  |  |  |  |  |  |  |  |  |  |  |  |  |  |  |  |  |  | 0 | 0 | 0 |  |  |  |  |  | 0
11 | CCOC(=O)[C@H](Cc1ccccc1)NC(=O)c1cc(Cl)c(OCCN2CCN(C)CC2)c(Cl)c1O [JTE-607] | 90.9 | 95.5 | 99.8 | 103 | 76.1 | 107 | 109 | 98.6 | 56.8 | 41.9 | 99.9 | 98.8 | 95.7 | 102 | 80 | 103 | 99.1 | 104 | 101 | 103 | > 10 | 0.606 | > 10 | > 10 | 0.7 | 8.4 | 0.5 | 0 |  |  |  |  |  | 
12 | CCNC(=O)CC[C@H](N)C(=O)O [L-theanine] | 98.2 | 95 | 98.7 | 93.1 | 105 | 95.8 | 89.8 | 95.5 | 89.8 | 99.4 | 99.8 | 103 | 95.8 | 101 | 102 | 95.8 | 99 | 105 | 104 | 88 | > 10 | > 10 | > 10 | > 10 | 0 | 0 | 0 | 0 |  |  |  |  |  | 
13 | Nc1nc2cc(-c3ccc4ncc(C(=O)N5CCOCC5)n4c3)ccc2o1 [MLN1117] | 107 | 101 | 107 | 89.9 | 66.6 | 98.1 | 101 | 102 | 96.3 | 54.5 | 96.4 | 95.2 | 106 | 91.2 | 84.3 | 104 | 106 | 106 | 95.1 | 85.8 |  |  | > 10 | > 10 | 3 | 2.9 | 1 | 0.5 | 94.2 | 102 | 104 | 96.8 | 64.7 | 2.2
14 | COc1ccc(C(=O)C2CCN(CC(=O)N(Cc3nc4c(c(=O)[nH]3)COCC4)CC3CC3)CC2)cc1 [NVP-TNKS656] | 110 | 96.7 | 92.9 | 109 | 93.3 | 98.7 | 106 | 106 | 106 | 93.6 | 99 | 96.7 | 91.5 | 88.9 | 90.6 | 105 | 101 | 83.1 | 63.1 | 65.9 | > 10 | > 10 | > 10 |  | 0 | 0 | 0.3 | 8.7 | 95.3 | 97.3 | 70.3 | 68.2 | 82.7 | 9.5
15 | Oc1cccc(Nc2ncc(F)c(Nc3cccc(O)c3)n2)c1 [R112] | 103 | 107 | 99.1 | 94.7 | 62.1 | 106 | 102 | 107 | 96.1 | 30.9 | 97.6 | 101 | 95.6 | 98.5 | 30.2 | 103 | 102 | 99.9 | 99 | 46.6 |  | 2.72 | 3.01 | 3.03 | 2.7 | 4.4 | 4 | 3 | 92.2 | 100 | 92.6 | 92.6 | 74.8 | 1.4
